Laboratory results as given in patent US7772001B2, “Directed differentiation of embryonic stem cells into an endoderm cell” (Yissum Research Development Company Of the Hebrew …, priority 2000, dated 2010).

Legend:
Type in all cases: cell-based
[1] = tested on: human EBs (from human ES cells); assay: In situ hybridization to NF-L RNA in cells derived from dissociated EBs; conditions: for proportion of neuronal cells in the cultures (NF-L RNA): controls 21%
Procedure: (§1) In Situ Hybridization and Immunohistochemistry: EBs or their plated derivatives were fixed in 4% paraformaldehyde. In in-situ experiments, hybridization to a 50-mer 2′-O-methyl 5′-biotinylated cDNA of NF-L (SEQ ID NO:1) (CCTGCGTGCGGATGGAC […]) followed. The probes were then detected with streptavidin-conjugated alkaline phosphatase using a fluorogenic substrate (Grifman et al, 1998). For immunohistochemistry, EBs were either embedded in paraffin and sectioned at 10 μM, or stained directly on the plates. Mouse monoclonal anti-NF-II was used as a primary antibody, and was detected with Cy3-conjugated goat anti-mouse igG.
(§2) Cell Culture. Human ES cells were grown and EBs were generated as described in Example 1. Four days following initiation of aggregation growth factors were administered: retinoic acid (Sigma): 10-^7 M (Bain et al, 1995) or 10^−6 (Bain et al, 1996); TGFβ1 (Sigma): 2 ng/ml (Slager et al, 1993); βNGF (New Biotechnology, Israel): 100 ng/ml (Wobus et al, 1988). After 21 days, EBs were plated on 5 μm/cm^2 collagen treated plates, either as whole EB's, or as single cells dissociated with trypsin/EDTA. The cultures were maintained for an additional week or 2 days, respectively.
In situ hybridization and immunohistochemistry was carried out according to Example 1. RT-PCR analysis. cDNA was synthesized from total RNA and PCR performed according to Example I. Primers for GAPDH, serotonin receptors 2A and 5A (5HT2A7 5HT5A, respectively) and dopamine receptor D1 (DRD1) were purchased from Clontech. The primers for dopa decarboxylase (DDC) were: […] (SEQ ID NO:2) and […] (SEQ ID NO:3).
Differentiation was initially assayed by in-situ hybridization to neurofilament light chain (NF-L) RNA, which is expressed by both immature and fully differentiated neurons (Carden et al, 1987).

[2] = tested on: human EBs; assay: NF-H immunostaining of plated EBs, neuronal network complexity; conditions: RA treatment and plating on collagen; untreated EBs 54%
Procedure: as §1, §2
In situ hybridization and immunohistochemistry was carried out according to Example 1. […]

[3] = tested on: human differentiated embryonic (DE) cells; assay: RT-PCR of cell specific genes in DE cells treated with growth factors; conditions: for blood formation / differentiation into ectodermal cells / differentiation into kidney cells / differentiation into mesodermal cells / differentiation into skin cells / differentiation of brain cells (neurons) / differentiation of heart cells / differentiation of muscle / differentiation into chondrocytes / differentiation into endodermal cells / differentiation toward liver (hepatocytes) / differentiation toward pancreas (islet cells) / differentiation into Mullerian duct cells: vs control without growth factor (FIG. 4); for expression of uro-genital marker WT-1 / set of cell specific transcripts produced: DE cells, 10 days with factor; for overall induction or repression of cell specific expression (FIG. 3B): at least three experiments
Procedure: (§3) Cell Culture: Human embryonic stem cells were grown on a feeder layer of mouse embryonic fibroblasts (MEF) and then transferred to gelatin coated plates and cultured further to reduce the number of murine cells in the culture. Differentiation into embryoid bodies (EBs) was initiated by transfer to Petri dishes, where the embryoid bodies remained in suspension. After 5 days, the EBs become dissociated and cells are cultured as a monolayer forming differentiated embryonic (DE) cells. This protocol allows for initial differentiation of the human embryonic stem cells as aggregates and further differentiation as a monolayer wherein cells can be exposed to exogenous growth factors. The DE cells were cultured for 10 days in the presence of 8 different growth factors: NGF, bFGF, Activin-A, TGFβ1, HGF, EGF, BMP4 and retinoic acid (RA) (FIG. 1A).
To induce formation of EBs, ES cells were transferred using trypsin/EDTA (0.1%/l mM) to plastic Petri dishes to allow their aggregation and prevent adherence to the plate. Human EBs were grown in the same culture medium, except that it lacked leukemia inhibitory factor (LIF) and bFGF. The EBs were cultured for 5 days and then dissociated and plated on tissue culture plates coated with 50 μg/ml Fibronectin (Boehringer Mannheim). The cells were grown in the presence of the following human recombinant growth factors used singly or in groups: Basic Fibroblast Growth Factor (bFGF) (Swoboda et al, 1999)—10 ng/ml (Gibco BRL); Transforming Growth Factor Beta 1 (TGFβ1) (Swoboda et al, 1999)—2 ng/ml (R&D Systems); Activin-A (Slager et al, 1993)—20 ng/ml (R&D Systems); Bone Morphogenic Protein 4 (BMP-4) (Slager et al, 1993; Bain et al, 1996)—10 ng/ml (R&D Systems); Hepatocyte Growth Factor (HGF)/Scatter Factor (Doetsch et al, 1999)—20 ng/ml (R&D Systems); Epidermal Growth Factor (EGF) (Doetsch et al, 1999)—100 ng/ml (R&D Systems); βNerve Growth Factor (NGF) (Johansson et al, 1999)—100 ng/ml (R&D Systems); Retinoic acid (RA) (Deacon et al, 1998; Peschanski et al, 1995)—1 μM (Sigma). Under these conditions the differentiated embryonic (DE) cells were grown for another 10 days. All of the examined growth factors are absent from the KnockOut™ serum replacement in which the embryonic cells were cultured.
RT-PCR Analysis: Total RNA was extracted using Atlas™ Pure Total RNA Kit (Clontech). cDNA was synthesized from 1 μg total RNA, using Atlas™ RT-for-PCR Kit (Clontech). cDNA samples were subjected to PCR amplification with DNA primers selective for the human genes. For each gene, the DNA primers were derived from different exons to ensure that the PCR product represents the specific mRNA species and not genomic DNA. PCR was performed using the Clontech Advantaq+™ RT-PCR kit and using a two-step cycle at 68° C.
Primers were synthesized for the following genes: neurofilament heavy chain (NF-H), phosphoprotein enriched in astrocytes (PEA-15), Keratin, Dopamine β Hydroxylase (DβH), Follicular Stimulating Hormone (FSH), Enolase, Myosin light polypeptide2 (myosin), Cartilage Matrix Protein (CMP), Renin, Kallikrein, Wilms Tumor 1 (WTI), β-Globin (β-Glob), δ-Globin (δ-Glob), Cardiac Actin (cACT), Albumin, α1 anti-trypsin (α1 AT), Lipase, Amylase, PDX-1, Insulin, Glucagon, Surfactant, Parathyroid Hormone (PTH), α-feto protein (αFP), Retinoic Acid Receptor type alpha (RAR), Hepatocyte Growth Factor Receptor (c-Met), Nerve Growth Factor Receptor (NGFR), Fibroblast Growth Factor Receptor type I (FGFRI), Transforming Growth Factor Receptor type II (TGFRII), Epidermal Growth Factor Receptor type (EGFR), Activin Receptor type IIB (ACTRIIB), Bone Morphogenic Protein 4 Receptor type II (BMP4RII), Octamer Binding Protein 4 (Oct 4), Glyceraldehyde 3-phosphate dehydrogenase (G3PD), β-Actin. Also incorporated by reference, see http://www.ls.huji.ac.il/˜nissimb/factors_es/primers.html-ente.
The differentiation induced by growth factors was further examined by determining the expression of a panel of 24 cell specific genes using RT-PCR. […]

[4] = tested on: human differentiated embryonic (DE) cells; assay: Morphology of DE cells cultured with growth factors; conditions: several days on plastic, continuous exposure to growth factor (FIG. 1B)
Procedure: as §3
To induce formation of EBs, ES cells were transferred using trypsin/EDTA (0.1%/l mM) to plastic Petri dishes to allow their aggregation and prevent adherence to the plate. Human EBs were grown in the same culture medium, except that it lacked leukemia inhibitory factor (LIF) and bFGF. The EBs were cultured for 5 days and then dissociated and plated on tissue culture plates coated with 50 μg/ml Fibronectin (Boehringer Mannheim). […]

| Compound | blood formation [3] | differentiation into ectodermal cells [3] | differentiation into kidney cells [3] | differentiation into mesodermal cells [3] | differentiation into skin cells [3] | differentiation of brain cells (neurons) [3] | differentiation of heart cells [3] | differentiation of muscle [3] | expression of uro-genital marker WT-1 [3] | differentiation into chondrocytes [3] | differentiation into endodermal cells [3] | differentiation toward liver (hepatocytes) [3] | differentiation toward pancreas (islet cells) [3] | cell morphology found in treated culture [4] | set of cell specific transcripts produced [3] | overall induction or repression of cell specific expression (FIG. 3B) [3] | differentiation into Mullerian duct cells [3] | further results |
| --- | --- | --- | --- | --- | --- | --- | --- | --- | --- | --- | --- | --- | --- | --- | --- | --- | --- | --- |
| CC1=C(/C=C/C(C)=C/C=C/C(C)=C/C(=O)O)C(C)(C)CCC1 [RA, retinoic acid, reference compound] | – | – | – | – | – | – | – | – | – | – | – | – | – | – | – | – | – | proportion of neuronal cells in the cultures (NF-L RNA) ([1]; high concentration of RA (10^−6 M)): 52%; number of EBs containing NF-H positive neurons [2]: 76% |
| EGF: human recombinant Epidermal Growth Factor, 100 ng/ml (NSDSECPLSHDGYCLHDGVCMYIEALDKYACNCVVGYIGERCQYRDLKWWELR; UniProt P01133 971-1023, looked up) | inhibits | allow or induce | inhibits | allow or induce | stimulate | inhibits | stimulate | permits normal levels | – | – | – | – | – | – | – | – | – | – |
| HGF: human recombinant Hepatocyte Growth Factor/Scatter Factor, 20 ng/ml | significant inhibition | allows | completely inhibited | allows | induced at their normal level | significant inhibition | – | – | expressed | significant inhibition | allows | significant inhibition | significant inhibition | large populations of small cells with pronounced nuclei | – | – | – | – |
| NGF: human recombinant β nerve growth factor, 100 ng/ml | stimulate | allows | direct the differentiation | allows | completely inhibited | direct the differentiation | stimulate | down-regulate | expressed | down-regulate | allows | direct the differentiation | direct the differentiation | – | induce expression of a variety of transcripts indicative of cells from all three germ layers | induces the greatest variety of cell specific gene expression | direct the differentiation | number of neuronal cells that develop from human embryonic cells ([1]; summary statement): enhance; proportion of neuronal cells in the cultures (NF-L RNA) ([1]; βNGF 100 ng/ml): 39%; expression of adrenal markers [3]: not; expression of endodermal markers [3]: induce |
| TGFβ1: human recombinant Transforming Growth Factor Beta 1, 2 ng/ml | inhibit | inhibit | inhibit | allow differentiation into selected mesodermal cells | – | – | – | – | – | inhibit | inhibit | – | – | – | relatively reduced set of specific transcripts | mostly repress or fail to direct differentiation of as many cell types | inhibit | effect on neuronal differentiation (NF-L RNA) ([1]; TGFβ1 2 ng/ml): no effect |
| bFGF: human recombinant Basic Fibroblast Growth Factor, 10 ng/ml | – | allow or induce | inhibits | allow or induce | permits formation of normal levels | permits formation of normal levels | stimulates | permits formation of normal levels | – | – | – | – | – | fibroblast like cells | – | – | – | – |
